The test system of experiment [1] is HCMV recombinant mutant virus whose genome contains the prokaryotic beta-glucuronidase gene. The experiment in a line: microbe, parasite or virus in culture. The format is cell-based, human cytomegalovirus. The following applies: Human betaherpesvirus 5, Fibroblast. An outline of the steps: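 Human foreskin fibroblasts infected with HCMV recombinant carrying beta-glucuronidase under a viral promoter (e.g. RV145) in presence of compound. At 96 h post-infection, lysates assayed for beta-glucuronidase by colorimetric or fluorogenic substrate as replication readout; IC50 estimated from varying compound amounts.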

Experiment [2] deals with HSV- I. Briefly: HSV antiviral (ELISA) assay. Type of experiment: cell-based. Particulars: read-out: IC50 (ug/ml) HSV. The method in brief: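 Vero cells in DMEM with 2% FBS treated with compound 30 min before HSV-1 infection (MOI 0.006), then incubated ~24 h at 37°C. Viral replication measured by ELISA against glycoprotein D with β-galactosidase-linked secondary and fluorogenic substrate (ex 365/em 450 nm); IC50 relative to untreated fluorescence.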
(In general: In an ELISA, binding on a coated surface is turned into a signal by an enzyme label.)

Experiment [3] deals with VZV strain Ellen. The experiment in a line: VZV antiviral (ELISA) assay. The format is cell-based. An outline of the steps:
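HFF cells infected with VZV Ellen at multiplicity below 0.1 overnight, then mixed infected/uninfected cells seeded with compound in DMEM/2% FBS and incubated three days at 37°C, 5% CO2.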

Where [4] appears, read: read-out: IC50 ug/ml HCMV, HCMV, human foreskin fibroblasts.
[5] abbreviates: Human alphaherpesvirus 3, HFF, read-out: % inhibition 10 ug/ml VZV.
Setting [6] is: Human alphaherpesvirus 3, HFF, read-out: IC50 (ug/ml) VZV, VZV strain Ellen, HFF cells, ELISA.
The mark [7] stands for this setting: Human alphaherpesvirus 3, HFF, read-out: IC50 (ug/ml) VZV.
Setting [8] is: Human alphaherpesvirus 3, VZV strain Ellen, HFF cells, ELISA, read-out: IC50 (ug/ml) VZV.

IC50 and inhibition data for eleven compounds are collected here from patent publication EP1137645B1, “ALPHA-METHYLBENZYL-CONTAINING THIOUREA INHIBITORS OF HERPES VIRUSES CONTAINING A […] GROUP” (Wyeth, priority 1998, dated 2000).

In brackets after ≈: the same amount, converted by molar mass. Like-named read-outs stand apart in the source and are kept apart here.

For the compound `COc1cc(OC)c(NC(=S)Nc2ccc(NC(=O)c3ccccc3[S+](C)[O-])cc2)cc1Cl` (centres unmarked) [Example 220, N-{4-[3-(5-Chloro-2,4-dimethoxy-phenyl)-thioureido]-phenyl}-2-methane-sulfinyl-benzamide], the IC50 in experiment [1] (setting [4]), in experiment [2] (Vero) and in experiment [3] (setting [6]) was above 10 µg/mL throughout. In addition, in experiment [3] (setting [5]), the inhibition at 10 µg/mL stood at 35%.

Regarding `COc1cc(C)c(Cl)cc1NC(=S)Nc1ccc(NC(=O)c2c(F)cccc2F)cc1` [Example 333, N-{4-[3-(5-Chloro-2-methoxy-4-methyl-phenyl)-thioureido]-phenyl}-2,6-difluoro-benzamide], the IC50 in experiment [1] (setting [4]) came out at 2.5 µg/mL (≈ 5.41 µM); in experiment [2] (HSV- I, Vero cells, ELISA), 0.04 µg/mL (≈ 0.0866 µM); in experiment [3] (setting [7]), 4.5 µg/mL (≈ 9.74 µM). The inhibition at 10 µg/mL in experiment [3] (setting [5]) was found to be 92%.

For the compound `COc1cc(OC)c(NC(=S)Nc2ccc(NC(=O)c3ccccc3C)cc2)cc1Cl` [Example 114, N-{4-[3-(5-Chloro-2,4-dimethoxy-phenyl)-thioureido]-phenyl}-2-methyl-benzamide], the IC50 in experiment [1] (setting [4]) was 5 µg/mL (≈ 11 µM); in experiment [2] (HSV- I, Vero cells, ELISA), 0.3 µg/mL (≈ 0.658 µM); in experiment [3] (setting [7]), above 10 µg/mL. In addition, the inhibition at 10 µg/mL in experiment [3] (setting [5]) came out at 17%.

With `CCCCOc1ccc(NC(=S)Nc2ccc(NC(=O)c3ccccc3F)cc2)cc1Cl` [Example 809, N-{4-[3-(4-Butoxy-3-chloro-phenyl)-thioureido]-phenyl}-2-fluoro-benzamide], the IC50 in experiment [1] (setting [4]) is above 10 µg/mL; in experiment [2] (Vero) it was above 10 µg/mL; in experiment [3] (setting [6]), above 7.5 µg/mL.

Turning to `COc1cc(OC)c(NC(=S)Nc2ccc(NC(=O)c3cccc(OCc4ccccc4)c3)cc2)cc1Cl` [Example 210, 3-Benzyloxy-N-{4-[3-(5-chloro-2,4-dimethoxy-phenyl)-thioureido]-phenyl}-benzamide], the IC50 is above 10 µg/mL in experiment [1] (setting [4]); 5 µg/mL (≈ 9.12 µM) in experiment [2] (HSV- I, Vero cells, ELISA); above 10 µg/mL in experiment [3] (setting [7]). Besides, the inhibition at 10 µg/mL in experiment [3] (setting [5]) worked out at 14%.

In the case of `O=C(O)c1cccc(NC(=S)Nc2ccc(NC(=O)c3ccccc3F)cc2)c1` [Example 963, 3-{3-[4-(2-Fluoro-benzoylamino)-phenyl]-thioureido}-benzoic acid], the IC50 was above 10 µg/mL in experiment [1] (read-out: IC50 ug/ml HCMV); above 10 µg/mL in experiment [2] (HSV- I, Vero cells, ELISA); above 10 µg/mL in experiment [3] (setting [8]). Further, in experiment [3] (Human alphaherpesvirus 3, read-out: % inhibition 10 ug/ml VZV, 10 ug/ml, VZV strain Ellen, HFF cells, ELISA), the inhibition at 10 µg/mL is 30%.

Take `COC(=O)c1cccc(NC(=S)Nc2ccc(NC(=O)c3ccccc3F)cc2)c1` [Example 950, 3-{3-[4-(2-Fluoro-benzoylamino)-phenyl]-thioureido}-benzoic acid methyl ester]: the IC50 in experiment [1] (read-out: IC50 ug/ml HCMV) is above 10 µg/mL; in experiment [2] (HSV- I, Vero cells, ELISA) it was 8 µg/mL (≈ 18.9 µM); in experiment [3] (setting [8]), above 10 µg/mL.

For `CC(NC(=S)Nc1ccc(NC(=O)c2cc3ccccc3o2)cc1)c1cc2ccccc2o1` (centres unmarked) [Example 981, Benzofuran-2-carboxylic acid {4-[3-(1-benzofuran-2-yl-ethyl)-thioureido]-phenyl}-amide], the IC50 in experiment [1] (setting [4]) is above 10 µg/mL; in experiment [2] (HSV- I, Vero cells, ELISA), above 10 µg/mL; in experiment [3] (setting [7]) it was 0.2 µg/mL (≈ 0.439 µM).

As for `CCCCOc1cccc(C(=O)Nc2ccc(NC(=S)Nc3cc(Cl)c(OC)cc3OC)cc2)c1` [Example 219, 3-Butoxy-N-{4-[3-(5-chloro-2,4-dimethoxy-phenyl)-thioureido]-phenyl}-benzamide], the IC50 in experiment [1] (setting [4]) was above 10 µg/mL; in experiment [2] (HSV- I, Vero cells, ELISA), 2.5 µg/mL (≈ 4.86 µM); in experiment [3] (setting [7]) it was above 10 µg/mL. Also, in experiment [3] (setting [5]), the inhibition at 10 µg/mL amounted to 30%.

As to `COc1cc(OC)c(NC(=S)Nc2ccc(NC(=O)c3ccccc3-c3ccccc3)cc2)cc1Cl` [Example 182, Biphenyl-2-carboxylic acid {4-[3-(5-chloro-2,4-dimethoxy-phenyl)-thioureido]-phenyl}-amide], the results for the IC50 in experiment [1] (setting [4]), in experiment [2] (Vero) and in experiment [3] (setting [6]) were 10 µg/mL (≈ 19.3 µM), 10 µg/mL (≈ 19.3 µM) and above 10 µg/mL, respectively. Further, the inhibition at 10 µg/mL in experiment [3] (setting [5]) worked out at 32%.

With `CN(C)CC(=O)Nc1ccc(NC(=S)Nc2ccc(NC(=O)c3ccccc3F)cc2)cc1Cl` [Example 362, N-(4-{3-[3-Chloro-4-(2-dimethylamino-acetylamino)-phenyl]-thioureido}-phenyl)-2-fluoro-benzamide], the IC50 in experiment [1] (setting [4]) was above 10 µg/mL; in experiment [2] (HSV- I, Vero cells, ELISA), above 10 µg/mL; in experiment [3] (setting [7]) it was above 10 µg/mL. In experiment [3] (setting [5]), the inhibition at 10 µg/mL was 8%.
